Source: US20250171459A1, “2-METHYL-4',5'-DIHYDROSPIRO[PIPERIDINE-4,7'-THIENO[2,3-C]PYRAN] DERIVATIVES AS INHIBITORS OF APOL1 AND METHODS OF USING SAME” (Vertex Pharmaceuticals Incorporated, priority 2022, published 2025)

These molecules were tested against T1, APOL1 (Homo sapiens, UniProt O14791) (assay: MultiTox-Fluor Multiplex Cytotoxicity Assay in tet-inducible APOL1 T-REx-HEK293 cells (cell rescue, ratio of dead to live cells)). Conditions: tet-inducible transgenic APOL1 T-REx-HEK293 cell lines, 50 ng/mL tet, 24 hours; read-out: IP50 (i.e., IC50 for cell proliferation).
T1 sequence (O14791 1-398 S342G/I384M): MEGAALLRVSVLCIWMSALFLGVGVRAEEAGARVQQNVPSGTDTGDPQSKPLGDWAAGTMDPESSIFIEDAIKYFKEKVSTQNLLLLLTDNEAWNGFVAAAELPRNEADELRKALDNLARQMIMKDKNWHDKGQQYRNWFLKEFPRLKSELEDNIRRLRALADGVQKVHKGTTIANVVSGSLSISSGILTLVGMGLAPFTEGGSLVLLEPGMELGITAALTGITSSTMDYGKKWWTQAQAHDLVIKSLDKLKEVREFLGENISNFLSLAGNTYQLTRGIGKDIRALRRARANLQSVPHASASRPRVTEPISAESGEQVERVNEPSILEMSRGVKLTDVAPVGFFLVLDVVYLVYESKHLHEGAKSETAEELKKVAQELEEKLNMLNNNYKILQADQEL
Assay type: cell-based
Procedure, shortened: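 T-REx-HEK293 cells with tet-inducible APOL1 were treated with compound (10 μM top, 10-point 3-fold dilution, duplicate) plus 50 ng/mL tetracycline for 24 h at 37° C, in DMEM with 2% tet-free FBS. MultiTox-Fluor protease signals gave a dead/live ratio, normalized to no tet (100% viability) and tet alone (0%).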

Structure (SMILES) | IC50
Cc1ncc(CN2CC[C@]3(C[C@@H]2C)OC[C@H](O)c2cc(Cl)sc23)cn1 [Compound 793] | 100 to 500 nM
CCc1cc2c(s1)CCOC21CCN(Cc2cn(CC(C)CO)nn2)C(C)C1 (stereo not shown) [Compound 82] | 100 to 500 nM
C[C@H]1C[C@@]2(CCN1Cc1ccnnc1)OCCc1cc(CC(F)F)sc12 [Compound 569] | < 100 nM
CCc1cc2c(s1)CCO[C@@]21CCN(Cc2cn(CC3(S(C)(=O)=O)CC3)nn2)[C@@H](C)C1 [Compound 156] | < 100 nM
CC1Cc2sc(Cl)cc2C2(CCN(Cc3cnn(C)c3)[C@@H](C)C2)O1 (single isomer, unassigned) [Compound 529, (2′S)-2-chloro-2′,6-dimethyl-1′-[(1-methylpyrazol-4-yl)methyl]spiro[6,7-dihydrothieno[3,2-c]pyran-4,4′-piperidine]] | < 100 nM
C[C@H]1C[C@@]2(CCN1Cc1ccc(F)cc1)OCCc1cc(Cl)sc12 [Compound 672] | 100 to 500 nM
CCc1cc2c(s1)CCO[C@@]21CCN(Cc2cn(CCN3CCS(=O)(=O)CC3)nn2)[C@@H](C)C1 [Compound 175] | 500 to 1000 nM
C[C@H]1C[C@@]2(CCN1Cc1cnn(C)c1)OCC(O)c1cc(Cl)sc12 (mixture of isomers) [Compound 818] | < 100 nM
CCc1cc2c(s1)CCO[C@@]21CCN(Cc2cn(CC3(C4(O)CCOCC4)CC3)nn2)[C@@H](C)C1 [Compound 103] | 100 to 500 nM
CCc1cc2c(s1)CCO[C@@]21CCN(CC2CN(C(=O)COC(C)(C)C)C2)[C@@H](C)C1 [Compound 442] | < 100 nM
C[C@H]1C[C@@]2(CCN1Cc1cnn(CC(O)C3(O)CCOCC3)c1)OCCc1c2sc(C(F)(F)F)c1CO (stereo partly drawn) [Compound 930, 4-[1-hydroxy-2-[4-[[(2′S, 7R)-3-(hydroxymethyl)-2′-methyl-2-(trifluoromethyl)spiro[4,5-dihydro-thieno[2,3-c]pyran-7,4′-piperidine]-1′-yl]methyl]pyrazol-1-yl]ethyl]tetrahydropyran-4-ol] | < 100 nM
CCc1cc2c(s1)CCO[C@@]21CCN(Cc2cn(CC(O)CN3CCCC3=O)nn2)[C@@H](C)C1 (stereo partly shown) [Compound 99] | < 100 nM
CC(=O)N(C)C1CO[C@@]2(CCN(Cc3cnn(CCS(C)(=O)=O)c3)[C@@H](C)C2)c2sc(Cl)cc21 (stereo partly drawn) [Compound 857, N-[(2′S, 7R)-2-chloro-2′-methyl-1′-[[1-(2-methylsulfonylethyl)pyrazol-4-yl]methyl]spiro[4,5-dihydrothieno[2,3-c]pyran-7,4′-piperidine]-4-yl]-N-methyl-acetamide] | < 100 nM
CCc1cc2c(s1)CCO[C@@]21CCN(Cc2cn(C3(CO)CCOC3)nn2)[C@@H](C)C1 (stereo partly shown) [Compound 170] | 500 to 1000 nM
CCc1cc2c(s1)CCO[C@@]21CCN(CC2CN(C(=O)C(C)(C)O)C2)[C@@H](C)C1 [Compound 443] | < 100 nM
CCc1cc2c(s1)C[C@@H](C)OC21CCN(Cc2cnn(C)c2)CC1 [Compound 1176] | 500 to 1000 nM
CCc1cc2c(s1)CCO[C@@]21CCN(CC2CN(C(=O)[C@@H](C)NS(C)(=O)=O)C2)[C@@H](C)C1 [Compound 473] | 100 to 500 nM
C[C@H]1C[C@@]2(CCN1Cc1ccc(C(=O)N(C)C)cc1)OC[C@H](O)c1cc(Cl)sc12 [Compound 810] | 100 to 500 nM
CCc1cc2c(s1)CCO[C@]21CCN(Cc2cnn(C)c2)[C@H](C)C1 [Compound 270] | 100 to 500 nM
COCCN1CC[C@]2(C[C@@H]1C)OCCc1cc(CC(F)F)sc12 [Compound 614] | 100 to 500 nM
C[C@H]1C[C@@]2(CCN1Cc1cnn(CCS(C)(=O)=O)c1)OCCc1c2sc(C(F)F)c1CO [Compound 764, [(2′S, 7R)-2-(difluoromethyl)-2′-methyl-1′-[[1-(2-methylsulfonylethyl)pyrazol-4-yl]methyl]spiro[4,5-dihydrothieno[2,3-c]pyran-7,4′-piperidine]-3-yl]methanol] | < 100 nM
CNC(=O)[C@H](O)Cn1cc(CN2CC[C@]3(C[C@@H]2C)OCCc2c3sc(C(F)(F)F)c2CO)cn1 [Compound 986, (2R)-2-hydroxy-3-[4-[[(2′S, 7R)-3-(hydroxymethyl)-2′-methyl-2-(trifluoromethyl)spiro[4,5-dihydrothieno[2,3-c]pyran-7,4′-piperidine]-1′-yl]methyl]pyrazol-1-yl]-N-methyl-propanamide] | < 100 nM
C[C@H]1C[C@@]2(CCN1Cc1cnn(CC(C)(O)C(N)=O)c1)OCCc1c2sc(C(F)(F)F)c1CO (stereo partly drawn) [Compound 989, 2-Hydroxy-3-[4-[[(2′S, 7R)-3-(hydroxymethyl)-2′-methyl-2-(trifluoromethyl)spiro[4,5-dihydrothieno[2,3-c]pyran-7,4′-piperidine]-1′-yl]methyl]pyrazol-1-yl]-2-methyl-propanamide] | < 100 nM
CCc1cc2c(s1)CCOC21CCN(Cc2cn(CC(C)(C)S(C)(=O)=O)nn2)CC1 [Compound 1081] | 100 to 500 nM
C[C@H]1C[C@@]2(CCN1Cc1cnn(C[C@H](O)C(C)(C)O)c1)OCCc1c2sc(C(F)(F)F)c1CO [Compound 887, (2S)-1-[4-[[(2′S, 7R)-3-(hydroxymethyl)-2′-methyl-2-(trifluoromethyl)spiro[4,5-dihydrothieno[2,3-c]pyran-7,4′-piperidine]-1′-yl]methyl]pyrazol-1-yl]-3-methyl-butane-2,3-diol] | < 100 nM
C[C@H]1C[C@@]2(CCN1Cc1ccnn1C)OCCc1cc(CC(F)F)sc12 [Compound 571] | 100 to 500 nM

Structure (SMILES) | IC50
CCc1cc2c(s1)CCOC21CCN(Cc2ccc(S(C)(=O)=O)cc2F)CC1 [Compound 1154] | 500 to 1000 nM
C[C@H]1C[C@@]2(CCN1Cc1cnn(C[C@@H](O)C(N)=O)c1)OC[C@@H](O)c1cc(C(F)(F)F)sc12 [Compound 992, (2R)-2-hydroxy-3-[4-[[(2′S,4S,7R)-4-hydroxy-2′-methyl-2-(trifluoromethyl)spiro[4,5-dihydrothieno[2,3-c]pyran-7,4′-piperidine]-1′-yl]methyl]pyrazol-1-yl]propanamide] | < 100 nM
C[C@H]1C[C@@]2(CCN1Cc1cnc(N3CCOCC3)nc1)OCCc1c2sc(Cl)c1CO [Compound 728] | < 100 nM
COc1nccc(CN2CC[C@]3(C[C@@H]2C)OC[C@H](O)c2cc(Cl)sc23)n1 [Compound 805] | 500 to 1000 nM
C[C@H]1C[C@@]2(CCN1Cc1cnn(CC(O)C(N)=O)c1)OC[C@@H](O)c1cc(C(F)(F)F)sc12 (stereo partly shown) [Compound 970] | < 100 nM
C[C@H]1C[C@@]2(CCN1Cc1cnn(CC(C)(CO)CO)c1)OCCc1c2sc(C(F)(F)F)c1CO [Compound 876] | < 100 nM
C[C@H]1C[C@@]2(CCN1Cc1cnn(CC(O)CC(C)(C)O)c1)OCCc1c2sc(C(F)(F)F)c1CO (stereo partly shown) [Compound 949] | < 100 nM
CCc1cc2c(s1)CCOC21CCN(Cc2cn(CC(CC)CO)nn2)C(C)C1 (stereo not shown) [Compound 115] | < 100 nM
C[C@H]1C[C@@]2(CCN1Cc1cnn(Cc3nnc[nH]3)c1)OCCc1c2sc(C(F)(F)F)c1CO [Compound 920] | 100 to 500 nM
CCc1cc2c(s1)CCO[C@@]21CCN(CC2CN(C(=O)[C@H]3CCC(=O)N3)C2)[C@@H](C)C1 [Compound 487] | 100 to 500 nM
CCCc1cc2c(s1)CCO[C@@]21CCN(Cc2cnn(C)c2)[C@@H](C)C1 [Compound 520] | < 100 nM
CCc1cc2c(s1)CCOC21CCN(Cc2ccc(C(=O)NCC(C)O)nc2)CC1 (stereo not shown) [Compound 1061] | 100 to 500 nM
Cc1cn2nc(CN3CC[C@]4(C[C@@H]3C)OCCc3cc(Cl)sc34)cc2c(NC2CC2)n1 [Compound 637] | < 100 nM
CCc1cc2c(s1)CCO[C@@]21CCN(C[C@H]2C[C@@H](NC(=O)c3ccc4cn[nH]c4c3)C2)[C@@H](C)C1 [Compound 307] | < 100 nM
C[C@H]1C[C@@]2(CCN1Cc1cnn(CCS(C)(=O)=O)c1)OCCc1cc(CC(F)F)sc12 [Compound 559, (2′S, 7R)-2-(2,2-difluoroethyl)-2′-methyl-1′-[[1-(2-methylsulfonylethyl)pyrazol-4-yl]methyl]spiro[4,5-dihydrothieno[2,3-c]pyran-7,4′-piperidine]] | < 100 nM
C[C@H]1C[C@@]2(CCN1Cc1ccc(OCC(=O)N3CCOCC3)cc1)OC[C@H](O)c1cc(Cl)sc12 [Compound 798] | < 100 nM
C[C@H]1C[C@@]2(CCN1CC(O)c1ccc(F)cc1)OCCc1cc(CC(F)F)sc12 (stereo partly shown) [Compound 602] | < 100 nM
CCc1cc2c(s1)CCO[C@@]21CCN(CC(O)C(F)(F)F)[C@@H](C)C1 (stereo partly shown) [Compound 241] | 100 to 500 nM
CCc1cc2c(s1)CCO[C@@]21CCN(Cc2cn(CC(C)(C)C(C)(C)O)nn2)[C@@H](C)C1 [Compound 109] | 100 to 500 nM
CCc1cc2c(s1)CCOC21CCN(Cc2cn(CCS(C)(=O)=O)nn2)CC1 [Compound 1085] | 500 to 1000 nM
CCc1cc2c(s1)CCOC21CCN(Cc2ccc(C(=O)NC(CO)CO)nc2)CC1 [Compound 1057] | 100 to 500 nM
CCc1cc2c(s1)CCO[C@@]21CCN(Cc2cn(CC(N)=O)nn2)[C@@H](C)C1 [Compound 181] | 100 to 500 nM
CCc1cc2c(s1)CCO[C@]21CCN(Cc2cnn(CCS(C)(=O)=O)c2)[C@H](C)C1 [Compound 273] | 100 to 500 nM
CCc1cc2c(s1)CCO[C@@]21CCN(Cc2cn(C[C@H](C)O)nn2)[C@@H](C)C1 [Compound 141] | 100 to 500 nM
CCc1cc2c(s1)CCO[C@@]21CCN(C[C@H]2C[C@@H](NC(=O)C(O)C(F)(F)F)C2)[C@@H](C)C1 (stereo partly shown) [Compound 339] | < 100 nM
COc1cc(OCC(N)=O)ccc1CN1CC[C@]2(C[C@@H]1C)OCCc1c2sc(Cl)c1CO [Compound 716] | 100 to 500 nM
